Experimental data reported in patent US6527690B2, “Purification of phenyl ester salts” (priority 2000, dated 2003).

Key:
[1] = Hydrolysis of phenyl ester salt in water at elevated temperature (water crystallization); format: physicochemical
Excerpt: Phenyl ester salts may also be recrystallized from aqueous solutions. At first glance, the use of water (or an alcohol) as a solvent to replace acetic acid typically used for the purification of crude phenyl ester salts is not an obvious choice. Japanese Patent No. 6-306,042 (1995), for example, reports that compounds related to phenyl ester salts in water or alcohol are subject to hydrolysis or solvolysis at elevated temperatures. Indeed, initial work on water crystallization confirmed that phenyl ester salts, such as Compound (1), did undergo hydrolysis at elevated temperatures. Typical losses of Compound (1) were in the range of 5-7.5% at 90° C.

[2] = Measurement of perhydrolysis rate of formulated beads; conditions: 5 minutes, 10° C.
Method: To determine its perhydrolysis rate, the phenyl ester salt was formulated into beads. The beads were typically formulated using a powder or solid phenyl ester salt with a surfactant and a chelating agent. A typical formulation is shown below: […]
The dry materials were weighed, charged into a one-gallon sigma blade mixer and dry mixed for 1 minute. While mixing, water was added and mixing was continued for about 17.5 minutes. The wet mix bulk density was determined by measuring weight/volume. The material was extruded using the Luwa DG-L I at 90 rpm (using a 0.7 mm/I mm, 19.7% open area die). The extrusion was rounded for 1 minute at 1,350 rpm in the Luwa QJ-230 Marumerizer, followed by drying for 20 minutes at 115° C. in a Luwa MDB-400 fluid bed.
Perhydrolysis rate is the percentage of a phenyl ester salt that has undergone perhydrolysis in a specified period of time and at a specific temperature. For the purposes of these examples, perhydrolysis rate is measured at 5 and 30 minutes intervals at 10° C.
The perhydrolysis rate of a phenyl ester salt is measured by adding a weighed quantity of formulated beads comprising the phenyl ester salt, a reference detergent, and sodium […] monohydrate to a synthetic hard water solution in a chilled dissolution vessel (Sotax Model AT7, modified with a emersion chiller). The solution is maintained at 10° C. and stirred at 150 rpm. […]

sodium nonanamidohexanoyloxybenzenesulfonate [Compound (1)]
Hydrolysis ([1]; 90° C., operating at a pH range of 4-6): about 2.2% | Typical losses by hydrolysis ([1]; water crystallization at 90° C., pH not controlled): 5-7.5% | Five minute perhydrolysis rate ([2]; beads prepared from crystallized Compound (1)): 20% | Five minute perhydrolysis rate ([2]; beads prepared from spray-dried Compound (1)): 100%
